Where two headings read alike, the source gives them in different places.
Experiments:
BRG-1 = biological target: T1, BRG-1 (Homo sapiens, UniProt P51532); experiment: ATPase catalytic activity of BRG-1, ADP-Glo in vitro biochemical assay; details: 30 nM BRG-1, 400 μM ATP, read-out: BRG1 IC50
T1 construct: made in house; host or cells: High Five insect cells
How it was run: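 Once the ATPase reaction finished, leftover ATP was depleted over 40 minutes at room temperature. Generated ADP was next turned back into ATP during a 60-minute room-temperature step. Luciferase-derived light was then measured.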

BRM = biological target: T2, BRM (Homo sapiens, UniProt P51531); experiment: ATPase catalytic activity of BRM, ADP-Glo in vitro biochemical assay; details: for IC50: 30 nM BRM, 400 μM ATP; for Ratio* (BRG1 IC50 (μM) divided by BRM IC50 (μM)): selectivity ratio BRG1 IC50 / BRM IC50
T2 construct: made in house; host or cells: High Five insect cells
T2 sequence (P51531 whole entry): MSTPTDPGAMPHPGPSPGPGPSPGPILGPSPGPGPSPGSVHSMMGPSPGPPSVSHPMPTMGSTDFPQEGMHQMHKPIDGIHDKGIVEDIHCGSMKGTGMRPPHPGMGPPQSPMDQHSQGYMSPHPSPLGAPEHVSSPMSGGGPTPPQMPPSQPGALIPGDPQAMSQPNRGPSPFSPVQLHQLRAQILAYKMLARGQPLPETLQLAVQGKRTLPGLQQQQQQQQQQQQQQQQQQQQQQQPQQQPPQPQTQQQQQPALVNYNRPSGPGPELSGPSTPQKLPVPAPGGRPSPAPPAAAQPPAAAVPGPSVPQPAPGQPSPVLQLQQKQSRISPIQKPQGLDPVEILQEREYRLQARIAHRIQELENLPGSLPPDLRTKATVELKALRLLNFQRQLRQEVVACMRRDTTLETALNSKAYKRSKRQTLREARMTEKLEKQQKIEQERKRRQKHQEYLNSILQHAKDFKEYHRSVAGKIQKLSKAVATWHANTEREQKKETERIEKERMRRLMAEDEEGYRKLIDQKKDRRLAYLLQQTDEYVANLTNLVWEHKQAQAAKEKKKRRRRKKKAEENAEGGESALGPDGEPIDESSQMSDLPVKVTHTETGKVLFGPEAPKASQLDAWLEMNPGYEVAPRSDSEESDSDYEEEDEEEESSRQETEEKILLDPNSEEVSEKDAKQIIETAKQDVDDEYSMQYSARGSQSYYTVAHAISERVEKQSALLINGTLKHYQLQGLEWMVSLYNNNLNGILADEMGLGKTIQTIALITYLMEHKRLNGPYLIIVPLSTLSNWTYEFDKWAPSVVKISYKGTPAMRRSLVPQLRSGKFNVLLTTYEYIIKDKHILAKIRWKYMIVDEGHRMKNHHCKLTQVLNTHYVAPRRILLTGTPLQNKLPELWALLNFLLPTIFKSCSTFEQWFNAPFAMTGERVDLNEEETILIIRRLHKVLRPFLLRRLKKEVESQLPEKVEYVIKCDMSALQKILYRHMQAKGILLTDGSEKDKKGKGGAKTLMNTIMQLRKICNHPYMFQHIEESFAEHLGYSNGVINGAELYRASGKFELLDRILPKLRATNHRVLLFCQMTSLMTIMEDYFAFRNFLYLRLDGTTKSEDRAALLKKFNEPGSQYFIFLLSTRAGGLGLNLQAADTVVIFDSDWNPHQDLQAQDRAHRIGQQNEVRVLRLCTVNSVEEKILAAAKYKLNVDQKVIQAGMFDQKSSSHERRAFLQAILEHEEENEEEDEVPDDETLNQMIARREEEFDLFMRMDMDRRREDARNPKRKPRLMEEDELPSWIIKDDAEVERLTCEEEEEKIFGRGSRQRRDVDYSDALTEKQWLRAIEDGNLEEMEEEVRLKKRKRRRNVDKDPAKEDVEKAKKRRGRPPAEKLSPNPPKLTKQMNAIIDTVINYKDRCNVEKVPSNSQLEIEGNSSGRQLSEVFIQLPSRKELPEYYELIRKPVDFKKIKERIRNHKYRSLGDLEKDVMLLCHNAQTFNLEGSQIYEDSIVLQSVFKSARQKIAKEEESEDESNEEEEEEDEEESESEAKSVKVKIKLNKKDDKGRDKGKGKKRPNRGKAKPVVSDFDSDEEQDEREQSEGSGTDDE
How it was run: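 ADP-Glo luminescence, after depletion of leftover ATP and conversion of ADP, reported the activity. The 1 h room-temperature reaction held 400 μM ATP, 20 nM salmon sperm DNA and 30 nM BRM in 20 mM Tris pH 8, 20 mM MgCl2, 50 mM NaCl, 0.1% Tween-20, 1 mM DTT.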

[1] = ATPase catalytic activity, ADP-Glo

T1 sequence (P51532 whole entry): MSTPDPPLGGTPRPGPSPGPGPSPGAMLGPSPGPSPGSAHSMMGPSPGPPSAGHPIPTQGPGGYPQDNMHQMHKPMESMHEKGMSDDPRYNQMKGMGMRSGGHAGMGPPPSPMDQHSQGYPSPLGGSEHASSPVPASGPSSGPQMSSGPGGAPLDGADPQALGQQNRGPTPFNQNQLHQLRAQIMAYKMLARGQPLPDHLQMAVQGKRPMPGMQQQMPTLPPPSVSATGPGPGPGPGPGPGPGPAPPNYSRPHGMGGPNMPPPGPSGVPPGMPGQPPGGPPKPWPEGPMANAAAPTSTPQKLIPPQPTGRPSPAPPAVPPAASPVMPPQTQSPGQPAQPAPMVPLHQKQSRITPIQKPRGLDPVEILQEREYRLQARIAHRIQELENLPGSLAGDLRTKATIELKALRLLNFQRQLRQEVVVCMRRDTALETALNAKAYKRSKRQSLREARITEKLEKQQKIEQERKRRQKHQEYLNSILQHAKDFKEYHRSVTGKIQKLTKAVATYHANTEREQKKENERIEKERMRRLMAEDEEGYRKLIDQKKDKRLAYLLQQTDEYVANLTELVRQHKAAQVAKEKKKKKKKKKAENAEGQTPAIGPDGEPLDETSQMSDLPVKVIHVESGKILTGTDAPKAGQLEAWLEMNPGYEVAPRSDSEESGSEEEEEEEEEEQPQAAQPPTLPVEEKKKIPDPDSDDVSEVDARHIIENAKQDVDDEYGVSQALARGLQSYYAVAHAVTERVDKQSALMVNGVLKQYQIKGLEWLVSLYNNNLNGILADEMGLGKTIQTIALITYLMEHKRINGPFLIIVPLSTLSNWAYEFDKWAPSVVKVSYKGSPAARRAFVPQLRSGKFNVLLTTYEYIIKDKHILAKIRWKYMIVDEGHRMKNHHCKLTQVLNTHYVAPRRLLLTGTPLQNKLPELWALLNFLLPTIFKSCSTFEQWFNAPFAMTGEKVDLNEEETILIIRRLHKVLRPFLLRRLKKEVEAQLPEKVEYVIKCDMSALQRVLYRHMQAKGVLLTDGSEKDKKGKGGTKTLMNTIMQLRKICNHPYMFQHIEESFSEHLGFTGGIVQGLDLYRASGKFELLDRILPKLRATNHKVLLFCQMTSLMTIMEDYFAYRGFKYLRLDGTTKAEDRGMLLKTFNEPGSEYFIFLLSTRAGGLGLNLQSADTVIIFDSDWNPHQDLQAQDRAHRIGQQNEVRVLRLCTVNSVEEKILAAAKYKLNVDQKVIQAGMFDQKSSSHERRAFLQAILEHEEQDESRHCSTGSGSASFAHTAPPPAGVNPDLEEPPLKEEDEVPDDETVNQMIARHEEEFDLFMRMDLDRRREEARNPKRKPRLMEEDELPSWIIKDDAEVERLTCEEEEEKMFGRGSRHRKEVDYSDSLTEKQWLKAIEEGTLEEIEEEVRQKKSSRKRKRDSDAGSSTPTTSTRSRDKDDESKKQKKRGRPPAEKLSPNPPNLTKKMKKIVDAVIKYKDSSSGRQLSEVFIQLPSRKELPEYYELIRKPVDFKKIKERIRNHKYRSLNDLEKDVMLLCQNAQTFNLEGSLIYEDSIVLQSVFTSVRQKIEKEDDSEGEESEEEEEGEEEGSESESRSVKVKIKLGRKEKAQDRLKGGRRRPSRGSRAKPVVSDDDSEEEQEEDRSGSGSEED

Compound | IC50 (BRG-1; [1]) | IC50 (BRM; [1]) | Ratio* (BRM; ratio of BRG1 IC50 to BRM IC50) | IC50 (BRG-1; ADP-Glo ATPase assay) | IC50 (BRM; ADP-Glo ATPase assay) | Ratio* (BRM; ratio BRG1 IC50 / BRM IC50) | Ratio* (BRG1 IC50 (μM) divided by BRM IC50 (μM)) (BRM)
C[C@@H]1CN(c2cccc(-c3ccc4cnc(CNC(=O)c5ccc6c(c5)S(=O)(=O)CC[C@H]6C)cc4n3)n2)C[C@H](C)O1 [Compound 490] | 0.787 µM | 0.0561 µM | 14.02 | – | – | – | –
O=C(NCc1cc2nc(N3CCCc4cnc(C5CC5)nc43)ccc2cn1)c1ccc2c(c1)S(=O)(=O)CCOC2 [Compound 780] | – | – | – | 0.515 µM | 0.029 µM | 17.78 | –
C[C@H]1COCc2ccc(C(=O)NCc3cc4nc(-c5ccnc([C@H]6CC6(F)F)n5)ccc4cn3)cc2S1(=O)=O [Compound 464] | 0.986 µM | 0.036 µM | 27.40 | – | – | – | –
C[C@@H]1CN(c2cccc(-c3ccc4nnc(CNC(=O)c5ccc(Cl)c(S(C)(=O)=O)c5)cc4n3)n2)C[C@H](C)O1 [Compound 406] | 0.0697 µM | 0.005 µM | 13.86 | – | – | – | –
O=C(NCc1cc2nc(N3CCCc4cc5c(cc43)OCCO5)ccc2cn1)c1ccc2c(c1)S(=O)(=O)CCOC2 [Compound 793] | – | – | – | 0.14 µM | 0.0118 µM | 11.88 | –
CCO[C@@H](C)c1ccc2c(n1)N(c1ccc3cnc(CNC(=O)c4ccc5c(c4)S(=O)(=O)CCOC5)cc3n1)CCC2 [Compound 635] | 2.53 µM | 0.168 µM | 15.08 | – | – | – | –
O=C(NCc1cc2cc(-c3cccc(N4CCC4)n3)ccc2cn1)c1cc(F)c2c(c1)S(=O)(=O)CCOC2 [Compound 268] | – | – | – | 0.343 µM | 0.0163 µM | – | 21.00
O=C(NCc1cc2nc(N3CCCc4ccc(OC5CC5)cc43)ccc2cn1)c1ccc2c(c1)S(=O)(=O)CCOC2 [Compound 644] | 0.17 µM | 0.0064 µM | 26.34 | – | – | – | –
Cc1ccc2c(n1)CN(c1ccc3cnc(CNC(=O)c4ccc5c(c4)S(=O)(=O)CCOC5)cc3n1)CC2 [Compound 408] | 2.27 µM | 0.476 µM | 4.77 | – | – | – | –
O=C(NCc1cc2nc(-c3ccccc3Cl)ccc2cn1)c1ccc2c(c1)S(=O)(=O)CCOC2 [Compound 247] | – | – | – | 2 µM | 0.325 µM | – | 6.16
C[C@H]1CN(c2cccc(-c3ccc4cnc(CNC(=O)c5ccc6c(c5)S(=O)(=O)CCOC6)cc4n3)n2)C[C@H](C)O1 [Compound 216] | – | – | – | 0.0937 µM | 0.0109 µM | – | 8.63
O=C(NCc1cc2cc(N3CCCc4cc(-c5cn[nH]c5)ccc43)ccc2cn1)c1ccc2c(c1)S(=O)(=O)CCOC2 [Compound 789] | – | – | – | 0.0303 µM | 0.0059 µM | 5.10 | –
Cc1cc(C(=O)NCc2cc3nc(-c4cccc(N5C[C@@H](C)O[C@@H](C)C5)n4)ccc3cn2)cc2c1COCCS2(=O)=O [Compound 101] | – | – | – | 0.0577 µM | 0.0079 µM | – | 7.32
CS(=O)(=O)c1cc(C(=O)NCc2cc3nc(-c4cccc(N5CC[C@@H]6COCC6C5)n4)ccc3cn2)ccc1C(F)F (stereo partly drawn) [Compound 86] | – | – | – | 0.324 µM | 0.0225 µM | – | 14.43
C[C@@H]1CN(c2cncc(-c3ccc4cnc(CNC(=O)c5ccc(Cl)c(S(C)(=O)=O)c5)cc4n3)n2)C[C@H](C)O1 [Compound 182] | – | – | – | 0.422 µM | 0.0445 µM | – | 9.47
O=C(NCc1cc2nc(-c3cccc(C4(F)CCC4)n3)ccc2cn1)c1ccc2c(c1)S(=O)(=O)CCOC2 [Compound 154] | – | – | – | 2.13 µM | 0.142 µM | – | 14.94
O=C(NCc1cc2nc(N3CCOc4cc(F)c(C(F)F)nc43)ccc2cn1)c1ccc2c(c1)S(=O)(=O)CCOC2 [Compound 781] | – | – | – | 0.713 µM | 0.0279 µM | 25.53 | –
Cc1cnc2c(c1C)CCCN2c1ccc2cnc(CNC(=O)c3ccc4c(c3)S(=O)(=O)CCOC4)cc2n1 [Compound 429] | 0.0764 µM | 0.0074 µM | 10.32 | – | – | – | –

Compound | IC50 (BRG-1; [1]) | IC50 (BRM; [1]) | Ratio* (BRM; ratio of BRG1 IC50 to BRM IC50) | IC50 (BRG-1; ADP-Glo ATPase assay) | IC50 (BRM; ADP-Glo ATPase assay) | Ratio* (BRM; ratio BRG1 IC50 / BRM IC50) | Ratio* (BRG1 IC50 (μM) divided by BRM IC50 (μM)) (BRM)
Cc1ccc(C(=O)NCc2cc3nc(-c4cncc(C5CC5)n4)ccc3cn2)cc1S(C)(=O)=O [Compound 300] | – | – | – | 0.733 µM | 0.0647 µM | – | 11.32
COc1cnc2c(c1)CCN2c1ccc2cnc(CNC(=O)c3ccc4c(c3)S(=O)(=O)CCOC4)cc2n1 [Compound 703] | – | – | – | 0.298 µM | 0.0368 µM | 8.10 | –
C[C@@H]1COCCN1c1cccc(-c2ccc3cnc(CNC(=O)c4ccc5c(c4)S(=O)(=O)CCOC5)cc3n2)n1 [Compound 181] | – | – | – | 0.367 µM | 0.0405 µM | – | 9.06
O=C(NCc1cc2nc(N3CCOc4ccc(C(F)F)nc43)ccc2cn1)c1ccc2c(c1)S(=O)(=O)CCOC2 [Compound 594] | 1.19 µM | 0.0372 µM | 31.92 | – | – | – | –
C[C@@H]1CN(c2cccc(-c3ccc4cnc(CNC(=O)c5cc(F)c6c(c5)S(=O)(=O)[C@H](C)CN6C)cc4n3)n2)C[C@H](C)O1 [Compound 642] | 2.95 µM | 0.156 µM | 18.87 | – | – | – | –
CC1OCCS(=O)(=O)c2cc(C(=O)NCc3cc4nc(-c5cccc(N6C[C@@H](C)O[C@@H](C)C6)n5)ccc4cn3)ccc21 (stereo partly drawn) [Compound 54] | – | – | – | 0.0447 µM | 0.0095 µM | – | 4.70
COC[C@H]1C[C@@H]1c1cccc(-c2ccc3cnc(CNC(=O)c4ccc5c(c4)S(=O)(=O)CCOC5)cc3n2)n1 [Compound 369] | 0.416 µM | 0.0361 µM | 11.52 | – | – | – | –
Cc1ccc2c(n1)N(c1ccc3cnc(CNC(=O)c4ccc5c(c4)S(=O)(=O)CCOC5)cc3n1)CCN2C [Compound 593] | 2.19 µM | 0.243 µM | 9.02 | – | – | – | –
COCCN(c1cccc(-c2ccc3cnc(CNC(=O)c4ccc5c(c4)S(=O)(=O)CCOC5)cc3n2)n1)C1CC1 [Compound 349] | 0.253 µM | 0.0241 µM | 10.47 | – | – | – | –
C/C(F)=C/c1ccc(C(=O)NCc2cc3nc(-c4cccc(N5C[C@@H](C)O[C@@H](C)C5)n4)ccc3cn2)cc1S(C)(=O)=O [Compound 475] | 1.68 µM | 0.215 µM | 7.79 | – | – | – | –
CS(=O)(=O)c1cc(C(=O)NCc2cc3nc(-c4cccc(N5CC[C@@H]6OCC[C@H]6C5)n4)ccc3cn2)ccc1Cl [Compound 99] | – | – | – | 0.884 µM | 0.0787 µM | – | 11.24
CO[C@H]1C[C@H]1N(C)c1cccc(-c2ccc3cnc(CNC(=O)c4ccc5c(c4)S(=O)(=O)[C@@H](C)COC5)cc3n2)n1 [Compound 669] | 0.324 µM | 0.0171 µM | 18.96 | – | – | – | –
Cn1ccc2ccc(-c3ccc4cnc(CNC(=O)c5ccc6c(c5)S(=O)(=O)CCOC6)cc4n3)nc21 [Compound 136] | – | – | – | 0.239 µM | 0.0334 µM | – | 7.15
CN(c1cnc2c(c1)OCCN2c1ccc2cnc(CNC(=O)c3ccc4c(c3)S(=O)(=O)CCOC4)cc2n1)C1CCC1 [Compound 819] | – | – | – | 0.0467 µM | 0.0064 µM | 7.26 | –
C[C@H](C1COC1)N(C)c1cccc(-c2ccc3cnc(CNC(=O)c4ccc5c(c4)S(=O)(=O)CCOC5)cc3n2)n1 [Compound 470] | 0.954 µM | 0.0748 µM | 12.76 | – | – | – | –
O=C(NCc1cc2nc(N3CCCc4c(F)ccnc43)ccc2cn1)c1ccc2c(c1)S(=O)(=O)CCOC2 [Compound 526] | 0.25 µM | 0.0221 µM | 11.34 | – | – | – | –
COCCN(C)c1cccc(-c2ccc3cnc(CNC(=O)c4cc(F)c5c(c4)S(=O)(=O)CCOC5)cc3n2)n1 [Compound 100] | – | – | – | 0.0941 µM | 0.008 µM | – | 11.83
O=C(NCc1cc2nc(N3CCOc4cc(C5CC5)c(F)c(F)c43)ccc2cn1)c1ccc2c(c1)S(=O)(=O)CCOC2 [Compound 805] | – | – | – | 0.303 µM | 0.0262 µM | 11.56 | –

Source: patent US20230416248A1, “COMPOUNDS AND USES THEREOF” (Foghorn Therapeutics Inc., priority 2020, published 2023)
